According to patent US11149020B2, “MAP kinase modulators and uses thereof” (The Trustees of Columbia University in the City of New York, priority 2013, dated 2021):

Key:
APP/PS1 mice [1] = assay: Fear conditioning (contextual and cued) in APP/PS1 mice; conditions: 2.5 mg/kg, daily, p.o., from 2 months of age
[2] = Repeat dosing, observation of adverse events; assay type: in vivo, mouse; conditions: aged or diseased animals
Description: Further, the results in a battery of behavioral tests are consistent with a true hippocampus-dependent mechanism of action in attenuation of memory deficits. […] The selective improvement in cognitive behavior was also brought about with no effect on amyloid plaque load (Wilcock, D. M., and Colton, C. A. (2009) Immunotherapy, vascular pathology and microhemorrhages in transgenic mice. CNS Neurol. Disord.: Drug Targets 8, 50-64, herein incorporated by reference in its entirety).

[3] = test system: APP/PS1 transgenic and APP/PS1 knock-in mice; assay: β-amyloid plaque count, 6E10 immunohistochemistry; assay type: in vivo, mouse
Procedure: Histopathology. Immunohistochemistry was performed using the Ventana BenchMark Ultra automated platform. Tissue sections were first deparaffinized using Ventana's “ez-prep” solution. Antigen retrieval was performed by treatment at 95° C. for 54 minutes using Ventana's CC1 (pH 7.3) solution, followed by treatment with 0.3% hydrogen peroxide to block endogenous peroxidase. Tissue sections were then incubated in protein-free block (Biocare's background sniper) for 15 min to inhibit nonspecific binding. Primary antibody (anti-Aβ 6E10 at 1:400, Biocare Medical) was incubated for 32 min at room temperature. […] A board-certified neuropathologist, who was blinded to the treatment versus the control group, analyzed a sagittal section from each mouse and counted the total number of well-formed β-amyloid plaques.
MW-150 treatment improves cognitive performance in the absence of effect on Aβ plaque burden. […] (FIG. 26C) Quantification by a board-certified neuropathologist blinded to the treatment groups was done by analysis of a brain sagittal section from each mouse in which the total number of well-formed β-amyloid plaques in the entire section were counted. […] (FIG. 26D) In a separate experiment with APP/PS1 knock-in (KI) mice, Aβ plaques were quantified from KI mice treated with MW-150 or vehicle.

[4] = test system: synaptic depression induced by OGD; assay: Oxygen glucose deprivation (OGD) in entorhinal slices, field potentials; conditions: 10 μM, 10 min OGD
Procedure: Slice preparation. Animals were anesthetized using urethane (20% solution, 1 mL/100 g body weight) via intraperitoneal injection and then decapitated after disappearance of the tail pinch reflex. After brain removal, horizontal sections (400 μm in thickness), containing the entorhinal area, were made on a Vibratome. All steps were performed in ice-cold oxygenated ACSF solution. Before recording, slices were stored for at least 1 h in a recovery chamber containing oxygenated ACSF solution at room temperature. For electrophysiology, slices were perfused at a rate of 2.5-3 mL/min with oxygenated ACSF at 33±1° C. […] The amplitude of FP was monitored every 20 s and averaged every three responses by online data acquisition software. Effects on synaptic function were evaluated either during ischemia (as the average of FPs amplitude during the last 3 min of 10 min OGD application) or as the recovery of FPs calculated as the averaged relative amplitude of FPs respect to the baseline values after reintroduction of regular ACSF (from 41st to 50th min after the end of OGD). […]

APP/PS1 mice [5] = assay: LTP in APP/PS1 mice; assay type: in vivo, mouse; conditions: 2.5 mg/kg, daily, p.o., from 2 months until 3-4 months of age
APP/PS1 mice [6] = assay: RAWM in APP/PS1 mice; conditions: 2.5 mg/kg, daily, p.o., from 2 months of age
[7] = test system: LPS-induced IL-1β in brain cortex; assay: In vivo LPS-induced brain cortex IL-1β; design: species or system mouse; conditions: oral administration, 20 mg/Kg, 6 hrs after LPS
[8] = test system: murine microglial BV-2 cell line; assay: cells; assay type: cell-based; conditions: for IL-1β production with diverse TLR ligands: BV-2 cells, TLR2, TLR4, TLR7/8, TLR9 ligands
[9] = test system: Aβ42-treated hippocampal slices; assay: LTP in hippocampal slices treated with oligomeric Aβ42; design: species or system mouse; conditions: 10 μM, 200 nM Aβ42
Aβ42-infused mice [10] = assay: 2-day radial arm water maze (RAWM) in Aβ42-infused mice; assay type: in vivo, mouse; conditions: 5 mg/Kg, i.p.
>291 protein kinases = assay: Millipore Profiler large-scale kinome screen
Aβ42-infused mice [11] = assay: Contextual fear conditioning in Aβ42-infused mice; assay type: in vivo, mouse; conditions: 5 mg/Kg, i.p.
panel of 158 GPCRs = assay: Millipore GPCR Profiler cell-based functional screen (calcium flux FLIPR)
Description: Compounds were screened in vivo using a standard dose escalation screen in mice coupled with clinical observation and testing based on the SHIRPA mouse phenotype assay paradigm (Mammalian Genome 8, 711-719 SHIRPA (1997); herein incorporated by reference in its entirety). To obtain insight into the potential for off-target activity with the largest known family of small molecule drug targets, G-protein coupled receptors (GPCRs), a cell-based functional screen of the final title compounds was done. The Millipore® GPCR Profiler screen employs the ChemiScreen GPCR stable cell line technology used for real-time calcium flux FLIPR assays on a panel of 158 GPCRs. The NCBI Entrez identifier for each GPCR is provided at the vendor site (www.millipore.com). Follow-up validation of any initial hits as being true positives or negatives was done as described above for protein kinases by testing the concentration dependence of any cellular effects.

SMILES | contextual fear memory defect in APP/PS1 mice (APP/PS1 mice [1]) | adverse events with repeat dosing [2] | amyloid plaque burden [3] | synaptic depression induced by OGD [4] | LTP defect in APP/PS1 mice (APP/PS1 mice [5]) | spatial/reference memory defect (RAWM) in APP/PS1 mice (APP/PS1 mice [6]) | LPS-induced IL-1β levels in brain cortex [7] | IL-1β production with diverse TLR ligands [8] | LTP deficit in Aβ42-treated slices [9] | IC50 ([8]; Mus musculus, LPS-stimulated BV-2 cells, 18 hrs, read-out: IC50 using inhibition of IL-1β overproduction as end point) [nM] | reference memory deficit (RAWM) in Aβ42-infused mice (Aβ42-infused mice [10]) | large scale kinase screen result (>291 protein kinases) | contextual fear memory deficit in Aβ42-infused mice (Aβ42-infused mice [11]) | GPCR screen result (panel of 158 GPCRs)
CN1CCN(c2cc(-c3ccncc3)c(-c3ccc4ccccc4c3)nn2)CC1 [27 (MW-150), 6-(4-methylpiperazine-1-yl)-3-(naphthalen-2-yl)-4-(pyridin-4-yl)pyridazine] | rescue the defect in contextual fear learning | did not bring about any observed adverse events | no effects of MW-150 treatment on the amyloid plaque burden | ameliorated | rescue defects in LTP | rescue defects in spatial memory | – | – | – | – | – | – | – | –
CN(C)c1cc(-c2ccncc2)c(-c2cccc3ccccc23)nn1 [MW-181 (1)] | – | – | – | – | – | – | in vivo suppression of increased brain levels of IL-1β after oral administration | inhibition of increased cytokine production by glia in response to LPS (IC50=820±30 nM) and other TLR ligands | – | – | – | – | – | –
CN(C)c1cc(-c2ccncc2)c(-c2ccc3ccccc3c2)nn1 [MW-108 (2)] | – | – | – | – | – | – | restored IL-1β levels in the brain cortex back towards control | also seen in BV-2 cells stimulated with diverse TLR ligands | ameliorated the Aβ-induced electrophysiological deficit | 610 ± 20 | rescued the memory defects | negative | prevented by MW-108 (2) administration | negative
